According to patent US20160228575A1, “NARINGENIN COMPLEXES AND METHODS OF USE THEREOF” (THE GENERAL HOSPITAL CORPORATION, priority 2008, published 2016):
“Also recorded” adds a separate entry of the source. Where two headings read alike, the source gives them in different places.

Experiments:
[1] = molecular target: T1, Microsomal triglyceride transfer protein (MTP) (Homo sapiens, UniProt P55157); assay: Microsomal triglyceride transfer protein (MTP) activity assay in Huh7.5.1 cell homogenates; type: cell-based; conditions: Huh-7.5.1, 24 hours stimulation of Huh7.5.1 cells
T1 construct: The MTP assay was performed by incubating 50 μg cellular protein with 10 μl of donor and acceptor solutions; endogenous in cells; host or cells: Huh7.5.1 human hepatoma cells (sonicated homogenate, 50 µg cellular protein)
Experimental: MTP activity was analyzed using an MTP assay kit as previously described (11). The assay is based on a transfer of a fluorescent signal between donor and acceptor particles due to MTP activity. Briefly, confluent Huh7.5.1 cells stimulated with naringenin or carrier control for 24 hours then washed with ice cold PBS and scraped off the dish using a cell scraper. Samples were homogenized by sonication (3×5 sec) in buffer containing protease inhibitors. The MTP assay was performed by incubating 50 μg cellular protein with 10 μl of donor and acceptor solutions in 250 μl total buffer (15 mM Tris pH 7.4; 40 mM NaCl; 1 mM EDTA). Increase in fluoresecent signal was measured over 12 hours at 37° C. at the excitation wavelength of 465 nm and emission wavelength of 538 nm.

[2] = tested on: PPARα; assay: PPARα transcription in infected Huh7.5.1 cells; type: cell-based, human; conditions: short term 24 hours stimulation of Huh7.5.1 cells
Experimental: (§1) Virus samples collected in each experiment were filtered with a 0.45 μm filter and a volume of 100 μL for each sample was heated at 95° C. for 45 min. The reverse transcription reaction step was performed on a Mastercycler epgrdientS (Eppendorf) instrument using Omniscript and Sensiscript RT Kits (Qiagen). Real time PCR was performed on a Light Cycler LC-24 (Idaho Technology), using SuperScript™ III Platinum® CellsDirect Two-Step qRT-PCR Kits (Invitrogen) for quantitative PCR. For reverse transcription step, 2 μL of sample without RNA extraction were used. For real time PCR, 1 μL of the reverse transcription reactions was used. All reactions were performed according to the manufacturer's instructions using the primers detailed in Table 1.
PPARα and LXRα are ligand-activated transcription factors which control much of the fasted-to-fed transition and were previously shown to be important in the development of inflammation and insulin resistance. […] Following a short term 24 hours stimulation of Huh7.5.1 cells PPARα transcription increased by 86%, while LXRα was decreased by 25%. PPARα is the target of fibrates and plays a major role in the downregulation of inflammation, increasing sensitivity to insulin, and modulating dyslipidemia.

[3] = tested on: ACAT1; assay: ACAT1 mRNA level by qPCR in infected Huh7.5.1 cells; type: cell-based, human; conditions: naringenin 24 hours
[4] = tested on: HCV (JFH-1) in Huh-7.5.1 cells; assay: Intracellular HCV RNA and core protein in infected Huh-7.5.1 cells; type: cell-based, Hepatitis C virus
Experimental: HCV-infected Huh-7.5.1 cells were plated on a 6-well plate at a density of 1×10^5 cells/cm^2 and cultured overnight in standard medium. Prior to the beginning of the experiment, the cells were washed 3 times with PBS and cultured with DMEM containing 5% lipoprotein-free FBS. Oleate, Insulin, Naringenin, and Brefeldin A were added at this time as described in the text. Following 24 hours of incubation, the plate was gently agitated to release mechanically bound particles, the media was collected, filtered to remove cellular debris, and stored at −80° C. for further analysis. The attached cells were washed 3 times with PBS, harvested, pelleted and stored at −80° C. for further analysis.
as §1
Huh-7.5.1 cells were washed 3 times with PBS and fixed in 4% EM-grade paraformaldehyde for 10 minutes at room temperature. Slides were then washed with PBS and incubated in 100 mmol/L glycine for 15 minutes to saturate reactive groups. Samples were permeabilized for 15 minutes with 0.1% Triton X-100, blocked for 30 minutes with 1% bovine serum albumin and 5% donkey serum at room temperature, and stained with primary antibodies overnight at 4° C. After additional washes with PBS, samples were stained with fluorescently tagged secondary antibodies for 45 minutes at room temperature.

[5] = tested on: Caco-2 cell monolayer; assay: Transport across Caco-2 cell monolayer (apical to basolateral); type: in vitro ADME; conditions: human, Caco-2, 2 h, pH 7.35
Experimental: The Caco-2 cell line is an immortalized line of human epithelial colorectal adenocarcinoma cells, which is widely used by the pharmaceutical industry to predict the absorption rate of candidate drug compounds across the intestinal epithelial cell barrier. Caco-2 cells were grown and allowed to form confluent monolayers on transwell filters for 21 days as previously described^39. In detail, Caco-2, human epithelial colorectal adenocarcinoma cells were cultured in tissue culture flasks (Becton Dickinson and Co., Lincoln Park, N.J.). The growth medium was Dulbecco's modified Eagle's medium supplemented with 10% fetal bovine serum, 1% nonessential amino acids, and 4 mM glutamine without antibiotics. The monolayer cultures were grown in a CO2 incubator (5% CO2) at 37° C. The cells were harvested with 0.25% trypsin and 0.2% EDTA (0.5 to 1 min at 37° C.), resuspended, and seeded into a new flask. Cells between 30 to 53 passages were used.
For the transport studies, Caco-2 cells were seeded on Transwell (0.4-μm pore size, 1-cm^2 growth area; Corning Costar Co.) at a cell density of 1×10^5 cells/filter. Cell growth and maintenance was kept as previously described (98). […] The concentrations of Naringenin or HPbCD-Neringenin were determined as described and plotted as a concentration on the basolateral side vs. time. […]

[6] = tested on: primary human hepatocytes
[7] = tested on: S-180 sarcoma cell line; conditions: intraperitoneal or peroral injection once a day for 5 days, mice, cited from earlier work

T1 sequence (P55157 19-894): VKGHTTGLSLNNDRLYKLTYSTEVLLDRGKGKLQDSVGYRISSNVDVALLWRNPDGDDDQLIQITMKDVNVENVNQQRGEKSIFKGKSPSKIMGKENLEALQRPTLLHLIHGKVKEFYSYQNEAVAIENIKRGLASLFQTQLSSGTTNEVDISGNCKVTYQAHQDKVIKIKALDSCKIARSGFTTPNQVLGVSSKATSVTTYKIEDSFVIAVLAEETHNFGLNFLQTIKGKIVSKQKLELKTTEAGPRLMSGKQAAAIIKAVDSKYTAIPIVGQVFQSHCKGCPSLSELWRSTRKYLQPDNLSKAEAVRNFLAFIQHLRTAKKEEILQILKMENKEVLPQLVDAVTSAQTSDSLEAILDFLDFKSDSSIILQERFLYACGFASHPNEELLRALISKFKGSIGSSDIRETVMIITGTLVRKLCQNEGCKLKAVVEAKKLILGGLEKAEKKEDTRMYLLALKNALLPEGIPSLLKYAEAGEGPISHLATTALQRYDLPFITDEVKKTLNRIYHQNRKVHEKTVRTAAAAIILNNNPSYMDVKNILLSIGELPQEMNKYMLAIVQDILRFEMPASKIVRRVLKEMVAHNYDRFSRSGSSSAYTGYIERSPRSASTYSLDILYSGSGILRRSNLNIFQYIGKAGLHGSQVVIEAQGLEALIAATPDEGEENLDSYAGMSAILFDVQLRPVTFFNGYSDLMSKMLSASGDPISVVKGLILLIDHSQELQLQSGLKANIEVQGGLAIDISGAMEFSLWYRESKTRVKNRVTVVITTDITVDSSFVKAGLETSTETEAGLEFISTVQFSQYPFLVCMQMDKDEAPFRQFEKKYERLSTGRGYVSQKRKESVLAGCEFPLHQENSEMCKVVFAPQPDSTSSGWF
T1 sequence (P07237 18-508 partner): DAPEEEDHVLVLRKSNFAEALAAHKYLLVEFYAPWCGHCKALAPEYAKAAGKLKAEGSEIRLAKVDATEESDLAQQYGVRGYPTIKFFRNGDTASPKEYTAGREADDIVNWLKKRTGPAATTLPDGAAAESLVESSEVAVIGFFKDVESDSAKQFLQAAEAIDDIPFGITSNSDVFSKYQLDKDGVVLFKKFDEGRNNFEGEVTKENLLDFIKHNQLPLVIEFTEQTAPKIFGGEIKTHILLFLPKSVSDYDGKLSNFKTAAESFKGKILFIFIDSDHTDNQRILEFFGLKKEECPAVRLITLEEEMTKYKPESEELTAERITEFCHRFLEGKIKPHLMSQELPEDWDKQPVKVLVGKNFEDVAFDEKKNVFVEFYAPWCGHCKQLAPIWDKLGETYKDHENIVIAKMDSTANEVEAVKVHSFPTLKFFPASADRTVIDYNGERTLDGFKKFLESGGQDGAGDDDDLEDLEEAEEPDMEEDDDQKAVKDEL

Question: For `O=C1C[C@@H](c2ccc(O)cc2)Oc2cc(O)cc(O)c21` [naringenin], which inhibition at 200 µM [1] is on record?
Answer: Its inhibition at 200 µM is 58%.

Question: And the “increase of PPARα transcription” value [2]?
Answer: Its value is 86%.

Question: What about the “ACAT1 mRNA level” value [3] of the same molecule?
Answer: Its value is “remained unchanged”.

Question: And the “intracellular HCV core protein expression” value ([4]; 24 hours stimulation)?
Answer: Its value is “remained unchanged”.

Question: And the “intracellular levels of HCV (positive strand) RNA” value ([4]; 24 hours stimulation)?
Answer: The value was “remains unchanged”.

Question: What about the “HCV replication (intracellular HCV RNA), long-term treatment” value ([4]; long-term treatment, naringenin 200 μM, IFNα 1000 i.u.) of the same molecule?
Answer: The value was “didn't appear to effect; also recorded: remained unchanged”.

Question: And the “maximal naringenin concentration in basal chamber” value [5]?
Answer: Its value is 0.05 mM.

Question: And the “concentration up to which naringenin is non-toxic to freshly isolated human hepatocytes” value ([6]; 24 hours exposure)?
Answer: Its value is “greater than 1000 μM”.

Question: And the “naringenin concentration above which human hepatocyte viability dropped significantly” value ([6]; 24 hours exposure)?
Answer: The value was “greater than 1000 μl”.

Question: What about the human hepatocyte viability ([6]; human, 24 h, 200 μM) of the same molecule?
Answer: The human hepatocyte viability was 81%±3%.

Question: And the “tumor growth of S-180 sarcoma” value [7]?
Answer: The value was “significantly inhibit”.

Question: And the “tumor growth of S-180 sarcoma” value ([7]; listed as Naringenin)?
Answer: Its value is “significantly inhibits”.
